Literature values in US20180207149A1, “METHODS AND COMPOSITIONS FOR ENHANCING IMMUNE RESPONSE TO VACCINATION” (priority 2015, published 2018).

System: immunizing influenza vaccine strains
Settings: elderly subjects with chronic illness; topical, before intradermal trivalent influenza vaccine

SMILES: CC(C)Cn1cnc2c(N)nc3ccccc3c21 [imiquimod]
- immunogenicity against the immunizing influenza vaccine strains: expedited, augmented and prolonged the immunogenicity
